Assay results taken from a melting point compilation (Tetko et al.; mined from patent text by program, amines drawn as free bases though some values may be those of a salt).

| melting point [°C] | Structure (SMILES) |
| --- | --- |
| 237 to 239 | Cc1c(F)c(Br)cc2c1c(=O)c(C(=O)O)cn2C1CC1 |
| 157 to 159 | CC(C)(CO)c1ccc(C(O)CCCN2CCC(=C3c4ccccc4CCc4ccccc43)CC2)cc1 (stereo not given) |
| 148 | CC(C(=O)O)c1ccc2c(c1)C(=O)Cc1ccc(F)cc1S2 (stereo not given) |
| 139 to 142 | Cc1ccc(C2=NCCN2C(=O)Nc2ccccc2)cc1C |
| 364 to 365 | Nc1ccc(Sc2cccc3c2C(=O)c2cccc(Sc4ccc(N)cc4)c2C3=O)cc1 |
| 203 to 206 | CSCC1Cc2cc(C)c3[nH]c(=O)ccc3c2O1 (stereo not given) |
| 195 to 196 | Cc1ccc2nc(-c3cc(C(F)(F)C(F)(F)F)nn3-c3ccc(S(C)(=O)=O)cc3)sc2c1 |
| 206 to 208 | CC(C)=C1C(=O)N(c2ccc(O)cc2)C(=O)/C1=C(\C)c1cc(C)oc1C |
| 200 to 202 | COc1ccc(Cl)cc1Nc1c(C#N)cnc2cc(OC)c(OC)cc12 |
| 54 to 56 | CC(C)(C)c1cc(C(=O)CBr)cc2c1OCC2(C)C |
| 87 to 88 | COC(=O)CCc1conc1-c1ccc(Cl)c(Cl)c1 |
| 164 to 165 | O=C(O)CCc1cnoc1-c1ccc(Br)cc1 |
| 202 to 204 | CC(C)(C)NC(=O)NCc1ccc2c(c1)C(=O)N(C1CCC(=O)NC1=O)C2=O (stereo not given) |
| 84 to 87 | Nc1c(C(=O)c2cccc(C(F)(F)F)c2)[nH]c2cc(Cl)ccc12 |
| > 240 | COCc1c[nH]c2c([N+](=O)[O-])cc(C)cc2c1=O |
| 78 to 79 | COCC(=O)N[C@H]1c2ccccc2C[C@@H]1C |
| 136 to 138 | CC(C)(C)OC(=O)N1CCc2c(n(CCOc3ccccc3)c3cc(Cl)c(Cl)cc23)CC1 |
| 264 to 266 | CCOC(=O)c1c(Cn2cncn2)nc2cc(OC)c(O)cc2c1-c1ccc(O)c(O)c1 |
| 101 to 102 | CCCNC(=O)c1cc(-c2ccc(OC)cc2)nn(CC2CC2)c1=O |
| 229 to 230 | COC(=O)C1=C(O)c2ccc3ccccc3c2S(=O)(=O)N1C |
| 241 to 242 | COCC(=O)NC(CC(=O)Nc1n[nH]c(=S)s1)c1ccccc1 (stereo not given) |
| 232 to 235 | COCc1cc(OC)c(-c2ccc(C[C@H](NC(=O)c3c(Cl)cccc3Cl)C(=O)O)cc2)c(OC)c1 |
| 177 to 180 | CCCc1nc2c(N)nc3ccc(Br)cc3c2s1 |
| 113 | N#Cc1cc(N)ccc1N1CCCC1 |

| melting point [°C] | Structure (SMILES) |
| --- | --- |
| 130 to 131 | CCOC(=O)Cc1nc(-c2ccc(Cl)c(Cl)c2)oc1-c1ccoc1 |
| 232 to 234 | CC(C)C(C)CCC(C)C1CCC2C3CCC4CC(OC(=O)c5ccccc5)CCC4(C)C3CCC12C (stereo not given) |
| 94 to 95 | Cc1nc2c(OCc3ccccc3)cc(Br)cc2n1COCC[Si](C)(C)C |
| 270 | CC(C)(C)OC(=O)N[C@@H](Cc1c[nH]c2ccccc12)c1nc2c(C(F)(F)F)cccc2c(O)c1C(=O)Nc1nccs1 |
| 144 to 146 | CC(=O)NC[C@H]1CN(c2ccc(N3CCC(Cc4noc(-c5ccccc5)n4)CC3)c(F)c2)C(=O)O1 |
| 64 to 66 | O=C(Nc1ccc(OCCCc2cccnc2)c2ccccc12)c1cc(F)cc(N2CCOCC2)c1 |
| 49 to 51 | Cc1ccc(S(=O)(=O)Cc2ccccc2)cc1 |
| 81 to 85 | CCOC1=NC(OC)=NS(=O)(=O)N1C(C)C |
| 140 to 142 | CC1(C)CC(CNS(=O)(=O)c2ccc(Cl)cc2)(Cc2ccc(CC(=O)O)cc2)C1 |
| 95.5 to 96.5 | CC(C)n1nc(C#Cc2cccc(F)c2)ccc1=O |
| 79 to 81 | Brc1cccc(OCc2ccc3ccccc3n2)c1 |
| 179 to 180 | CCCCn1c(=O)c2cc(C(=O)OCC)cn2c2cc(Cl)c(Cl)cc21 |
| 154 | N#CC=C(c1ccc(-c2ccccc2)cc1)c1ccc(-c2ccccc2)cc1 |
| 157 to 161 | CCCc1nc(CC)c(C(=O)O)n1Cc1ccc(C2(C(=O)O)CC=CC2)s1 |
| 200 to 201 | CN(C)CCNC1=CC(=O)c2oc(-c3cc(F)c(F)c(F)c3)nc2C1=O |
| 160 to 161 | CCOc1nc(C(F)(F)F)cc(=O)n1-c1cc(O)c(Br)cc1F |
| 160 to 162 | Cn1c(=O)ccc2cnc(NCc3ccccc3)nc21 |
| 146 to 147 | CCCc1nn(-c2ccc(C(F)(F)F)cn2)cc1CCCOc1c(C#N)cccc1CC(=O)O |
| 218 to 220 | COc1cc(OCc2ccccn2)ccc1/C=C/c1cc(/C=C/c2ccc3c(c2)OCO3)n[nH]1 |
| 146 to 148 | Cc1nc(-c2ccc(C(F)(F)F)cc2)sc1N |
| 198 | CN(C)C(=O)C=C(N(C(N)=O)c1cc(F)c(C#N)cc1F)C(F)(F)F |
| 141 to 143 | CC[C@H]1CC[C@H](CCc2ccc(C(=O)CCC(=O)O)cc2)CC1 |
| 256 | Cc1c(C(=O)Nc2ccc(N3CCC(N4CCSCC4)CC3)c(C#N)c2)cnn1-c1ccc(Cl)cc1 |
| 83 to 85 | NCc1ccc2c(c1)N(C1CCN(CCc3ccc(F)cc3)CC1)CC2 |

| melting point [°C] | Structure (SMILES) |
| --- | --- |
| 152 | N#CCc1c(Cl)ccc2cc(Cl)cnc12 |
| 159 | CC(CC1COC(c2ccc(C(=O)Nc3ccc(C#N)cc3)cc2)OC1)C(O)(Cn1cncn1)c1ccc(F)cc1F (stereo not given) |
| 239 to 245 | CC(COc1ccc(C(N)=O)c(O)c1)NCC(O)COc1cccc2c1CCC(=O)N2 (stereo not given) |
| 178 to 180 | C=CCOC(=O)C(Cc1ccc2ccc3cccc4ccc1c2c34)(Cc1ccc2ccc3cccc4ccc1c2c34)C(=O)OCC=C |
| 107 | Cc1nc(C(O)c2ccc(Cl)cc2)sc1C (stereo not given) |
| 62.5 to 63.5 | O=C1CCCN1C(=O)NCCn1cccn1 |
| 267 to 272 | CS(=O)c1n[nH]c2ccc(Cl)cc2c1=O (stereo not given) |
| 149 to 153 | O=C(NO)c1ccc2c(c1)CCN(C(=O)NCc1ccccc1)C2 |
| 180 to 181 | CCCCc1nc2cccc(C(=O)OC)c2n1Cc1ccc(-c2ccccc2-c2nc(=S)o[nH]2)cc1 |
| 124 to 125 | CCOC(=O)c1c(C)cc(NC(=O)CCl)c(C(=O)O)c1C |
| 148 to 150 | CC(=Cc1ccccc1)c1ccc2c(c1)S(=O)(=O)CCC2(C)C |
| 50 to 51 | O=C(CCCOc1ccccc1OCc1ccccc1)C(F)(F)F |
| 78 | O=[N+]([O-])c1cc(Cl)c(Cl)cc1NCCCCl |
| 136 to 139 | COc1cc(OC)nc(C(C)c2ccccc2N)n1 (stereo not given) |
| 111 to 113 | CCOC(=O)CCc1cc2cc(O)ccc2s1 |
| 285 to 286 | O=C(O)c1ccc(-c2ccc(-c3ccc(Cl)cc3)s2)cc1 |
| 208 to 210 | Cc1cccc(-n2c(-c3cc(-c4ccc(S(C)(=O)=O)cc4)c(N4CCOCC4)s3)nc3ccccc3c2=O)c1 |
| 132 to 133 | COc1cc(OC)nc(Oc2c(Cl)cc(Cl)cc2C=O)n1 |
| 82 to 83 | CCOC(=O)c1c(CN(CC)CC)nc2cc(OC)c(OC)cc2c1-c1ccc(Cl)cc1 |
| 244 to 246 | CCNc1nc(Nc2ccccc2)ncc1C=CC#N |
| 215 | Cc1ccc(-c2ccc(S(C)(=O)=O)c(F)c2)n1-c1ccc(-c2cscn2)cc1 |
| 152 to 155 | O=C(O)C(Oc1ccc(Cl)cc1)Oc1ccc(C2CCNc3ccccc32)cc1 (stereo not given) |
| 80 to 82 | Cc1ccccc1Oc1cccc2c1OC(=O)CC2 |
| 223 to 224 | CN(CCCNC1=CC(=O)c2scnc2C1=O)CCCNC1=CC(=O)c2scnc2C1=O |

| melting point [°C] | Structure (SMILES) |
| --- | --- |
| 105 to 107 | CCCCC(CC)COc1cc2c3c(c4cc(OCC(CC)CCCC)c(OCC(CC)CCCC)cc4c2cc1OCC(CC)CCCC)C(=O)C=CC3=O (stereo not given) |
| 170 | COCC(=O)N[C@H]1CC[C@H](CCN2CCN(c3nccc4c3CCO4)CC2)CC1 |
| 205 to 209 | CCOCc1nc2c(N)nc3cc(OCCCCCCNC(=O)NC(C)C)ccc3c2n1CC(C)(C)NC(=O)NC(C)C |
| 125 to 129 | COc1ccc(Br)c(Sc2nc3c(N)nccc3n2CCCNC(C)C)c1 |
| 119 to 120 | O=C1CCC(c2c[nH]c3ccc(F)cc23)C1 (stereo not given) |
| 248 | COc1ccc(C(=O)O)c(Oc2ccc(C(F)(F)F)cc2NC(=O)Nc2cc(C(F)(F)F)cc(C(F)(F)F)c2)c1 |
| 176 to 178 | CCOC(=O)C1=C(C(F)(F)F)Nc2n[nH]cc2C1c1ccc(Cl)cc1 (stereo not given) |
| 64 | CCN(CCCN1CCN(c2ccccc2OC)CC1)C1CCc2ncsc2C1 (stereo not given) |
| 150 to 151 | CCCCCCCCCCCCCc1c[nH]c(C(=O)O)c1 |
| 124 | c1cnc(N2CCN(CCCCn3cccn3)CC2)nc1 |
| 230 | Cn1cccc1-c1ccc2c(c1)C(C)(C)OC(=O)N2 |
| 126 to 128 | CCOC(=O)c1ccc(CCC(=O)O)[nH]1 |
| 92 to 94 | CC1(C)Cc2cc(Cl)cc(Cl)c2C=[N+]1[O-] |
| 214 to 216 | N=C(NC=Cc1ccc([N+](=O)[O-])cc1)c1ccc([N+](=O)[O-])cc1 |
| 250 | CCCC(=O)Nc1n[nH]c2cc(Cl)c(Br)cc12 |
| 45 to 46 | CN(C)c1ccc(CCBr)cc1 |
| 201 to 203 | CC(C)(C)S(=O)(=O)N[C@H]1CC[C@H](C(=O)O)CC1 |
| 134 to 135 | CCc1noc(-c2cn(-c3cccc(Cl)c3)cn2)n1 |
| 131 to 134 | COc1cc2c(c(OC)c1)C1CCC3(C)C(OC(C)=O)CCC3C1CC2 (stereo not given) |
| 100 to 102 | O=C1C(CCO)Oc2cc([N+](=O)[O-])ccc2N1Cc1cccc(Cl)c1 (stereo not given) |
| 50 to 55 | CC(=O)O[C@@H]1C=C2C=C3C(=C(C)C(=O)N3C)C[C@]2(C)[C@@H](C)[C@H]1O |
| 164 to 165 | O=C(O)CCc1cccc2c1NC(=O)CC2 |
| 165 to 166 | Nc1nc(N)c(Br)c(OCc2ccccc2)n1 |
| 147 to 149 | c1cc(OCCCc2nnn[nH]2)cc(OCc2ccc3ccccc3n2)c1 |

| Structure (SMILES) | melting point [°C] |
| --- | --- |
| c1cc2c(cc1NC1=NCCN1)CCC2 | 41 to 42 |
| Cc1cc(NC(=O)C(C)(O)COc2cccc(C#N)c2)ccc1[N+](=O)[O-] (stereo not given) | 107 to 110 |
| COc1ccc(-c2nc(OC(=O)N(C)C)nn2-c2ccc(OC)cc2)cc1 | 121 to 123 |
| O=C1N(CC2CCC2)c2ccccc2C1(O)c1ccc2c(c1)OCO2 (stereo not given) | 124 to 125 |
